Data as given in patent US20020127182A1, “Paramagnetic metal ion-based macrocylic magnetization transfer contrast agents and method of use” (Board of Regents, The University of Texas System, priority 2000, published 2002).

Tests used:
Format in all cases: physicochemical
[1] = Effect of saturation duration on MT with Yb(9)^3+ (bulk water 1H NMR); conditions: 5 mM, pH 7.4, 25° C.; saturating pulse of about 2 s or longer centered between amide proton signals, bandwidth 1500 Hz
Description: An eleventh series of experiments was conducted to examine the effect of saturation duration on the magnitude of MT obtained using the Yb(9)^3+ complex. […] The upper series of spectra (a) were obtained while applying a saturating pulse of different duration and centered between the resonance signals of the exchangeable amide protons, with a saturating bandwidth of 1500 Hz. The saturating bandwidth was produced using conventional water elimination technique (i.e., a wet1d pulse sequence). See Varian User Manual; Varian NMR, Palo Alto, Calif.; User Guide, VNMR Version 6.1 software, 1997), incorporated herein by reference. The pulse sequence to produce saturation was modified to include hard loops to shape the pulse train (90° e-burp1, typically repeated from about 0 to about 500 times) with a bandwidth of 1500 Hz (pwwet=3.0 ms and wetpwr=28 db). The lower series (b) of spectra, shown inverted to facilitate comparison to series (a), were obtained while applying the same saturating pulse, but on the opposite side and equal distance away from the bulk water MR signal. As the illustrated in FIG. 26, for a saturating pulse of about 2 s or longer, about a 38% decrease in the bulk water signal was obtained for series (a).

[2] = 1H NMR spectra of Ln(9)^3+ complexes, exchangeable amide protons
From the text: For certain Ln(9)^3+ complexes, for example, with Ln equal to Yb or Tm, the bound water molecules are ^1H NMR invisible probably due to the fast exchange between the bound water and the bulk water. […] Unfortunately, the NMR signal was invisible, probably due to its fast exchange with the bulk water. However, the eight exchangeable amide protons present as two resonance peaks with equivalent intensity, at −14.5 (Ha) and −17.7 (Hb) ppm, respectively, are visible.

[3] = pH dependence of amide proton (Ha, Hb) lifetimes τM^298 and Δω•τM of Yb(9)^3+
From the text: As indicated by their linewidths, illustrated in FIG. 24, the two exchangeable amide sites have different dependences upon pH. As further illustrated in FIG. 25, Hb exchanges about 1.3 times faster than that of Ha. […] Similar to that discussed above for Ln(1)^3+, either too fast or too slow exchange may produce less MT. For the conditions used to obtain the data presented in Table 2, the maximum MT effect appear to be obtained for Ln(9)^3+ complexes when the exchange limiting regime is about 15.

chemical shift of amide protons, first set (Ha) [2]: −14.5 ppm
chemical shift of amide protons, second set (Hb) [2]: −17.7 ppm
Hb exchanges faster than Ha [3]: about 1.3 times
exchange limiting regimes Δω•τM of both amide protons ([3]; 7.05 T, broad range of pH values): > 1
τM^298, Ha ([3]; pH 6.46): 5.00 ms
τM^298, Hb ([3]; pH 6.46): 4.00 ms
Δω•τM^298, Ha ([3]; pH 6.46, 7.05 T): 139.3
Δω•τM^298, Hb ([3]; pH 6.46, 7.05 T): 133.7
τM^298, Ha ([3]; pH 6.76): 2.30 ms
τM^298, Hb ([3]; pH 6.76): 1.78 ms
Δω•τM^298, Ha ([3]; pH 6.76, 7.05 T): 64.1
Δω•τM^298, Hb ([3]; pH 6.76, 7.05 T): 59.5
τM^298, Ha ([3]; pH 7.06): 1.21 ms
τM^298, Hb ([3]; pH 7.06): 0.82 ms
Δω•τM^298, Ha ([3]; pH 7.06, 7.05 T): 33.6
Δω•τM^298, Hb ([3]; pH 7.06, 7.05 T): 27.2
τM^298, Ha ([3]; pH 7.21): 0.92 ms
τM^298, Hb ([3]; pH 7.21): 0.72 ms
Δω•τM^298, Ha ([3]; pH 7.21, 7.05 T): 25.5
Δω•τM^298, Hb ([3]; pH 7.21, 7.05 T): 24.2
τM^298, Ha ([3]; pH 7.43): 0.64 ms
τM^298, Hb ([3]; pH 7.43): 0.52 ms
Δω•τM^298, Ha ([3]; pH 7.43, 7.05 T): 17.9
Δω•τM^298, Hb ([3]; pH 7.43, 7.05 T): 17.4
τM^298, Ha ([3]; pH 7.84): 0.57 ms
τM^298, Hb ([3]; pH 7.84): 0.44 ms
Δω•τM^298, Ha ([3]; pH 7.84, 7.05 T): 15.9
Δω•τM^298, Hb ([3]; pH 7.84, 7.05 T): 14.7
SMILES: NC(=O)CN1CCN(CC(N)=O)CCN(CC(N)=O)CCN(CC(N)=O)CC1.[Yb+3] [Yb(9)^3+]
decrease in the bulk water signal, series (a) [1]: ~38%
